Test results reported in patent US20100056516A1 (priority 2006, published 2010).

Experiments:
HXB2 virus = test: microbe, parasite or virus in culture; format: cell-based, HIV; details: Human immunodeficiency virus 1, HXB2, HeLaP4-2, read-out: antiviral IC50 (SCIA-B)
In short: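 Single-cycle infectivity assay in HeLa P4-2 cells measuring inhibition of acute HIV infection, using HXB2 virus.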

HIV integrase = HIV integrase (Human immunodeficiency virus type 1 group M subtype B, UniProt P04585); test: integrase strand transfer assay (STA); format: biochemical; details: integrase strand transfer; read-out: IC50 in the STA assay

Compound	IC50 (HXB2 virus)	IC50 (HIV integrase)
CCOC(=O)c1c(O)c2cc(C(=O)NCc3ccccc3)cnc2n(O)c1=O [Example 77, Ethyl 6-[(benzylamino)carbonyl]-1,4-dihydroxy-2-oxo-1,2-dihydro-1,8-naphthyridine-3-carboxylate]	< 100 µM	< 50 µM
CC(C)(C)NC(=O)c1cccc(-c2cc(=O)n(O)c3ncccc23)c1 [Example 182]	< 100 µM	< 50 µM
O=c1cc(Nc2ccccc2N2CCCCC2)c2cccnc2n1O [Example 139, 1-hydroxy-4-{[2-(1-piperidinyl)pheny]amino}-1,8-naphthyridin-2(1H-one)]	< 100 µM	< 50 µM
CNC(=O)c1cccc(-c2cc(=O)n(O)c3ncccc23)c1 [Example 180, 3-(1-hydroxy-2-oxo-1,2-dihydro-1,8-naphthyridin-4-yl)-N-methylbenzamide]	< 100 µM	< 50 µM
O=c1c(-c2ccc(Br)cc2)c(O)c2cccnc2n1O [Example 38, 3-(4-Bromophenyl)-1,4-dihydroxy-1,8-naphthyridin-2(1H)-one]	< 100 µM	< 50 µM
CS(=O)(=O)Nc1cccc(-c2cnc3c(c2)c(O)cc(=O)n3O)c1 [Example 69, N-[3-(5,8-Dihydroxy-7-oxo-7,8-dihydro-1,8-naphthyridin-3-yl)phenyl]methane-sulfonamide]	< 100 µM	< 50 µM
O=c1c(-c2ccccc2Cl)c(O)c2cccnc2n1O [Example 35, 3-(2-Chlorophenyl)-1,4-dihydroxy-1,8-naphthyridin-2(1H)-one]	< 100 µM	< 50 µM
O=c1cc(N2CCCC(F)C2)c2cccnc2n1O (stereo not drawn) [Example 118, 4-(3-fluoropiperidin-1-yl)-1-hydroxy-1,8-naphthyridin-2(1H)-one]	< 100 µM	< 50 µM
O=C(NCC1CCNC1)c1c(O)c2cccnc2n(O)c1=O (stereo not drawn) [Example 25, 1,4-Dihydroxy-2-oxo-N-(pyrrolidin-3-ylmethyl)-1,2-dihydro-1,8-naphthyridine-3-carboxamide]	< 100 µM	< 50 µM
O=c1c(-c2cccc(Br)c2)c(O)c2cccnc2n1O [Example 44, 3-(3-bromophenyl)-1,4-dihydroxy-1,8-naphthyridin-2(1H)-one]	< 100 µM	< 50 µM
CC(=O)Nc1cccc(-c2cc(=O)n(O)c3ncccc23)c1 [Example 194, N-[3-(1-hydroxy-2-oxo-1,2-dihydro-1,8-naphthyridin-4-yl)phenyl]acetamide]	< 100 µM	< 50 µM
O=c1cc(O)c2c(-c3cccc(O)c3)ccnc2n1O [Example 226, 1,4-dihydroxy-5-(3-hydroxyphenyl)-1,8-naphthyridin-2(1H)-one]	< 100 µM	< 50 µM
O=C(c1cccc(-c2cc(=O)n(O)c3ncccc23)c1)N1CCCC1 [Example 195, 1-hydroxy-4-[3-(pyrrolidin-1-ylcarbonyl)phenyl]-1,8-naphthyridin-2(1H)-one]	< 100 µM	< 50 µM
NC(=O)c1cccc(-c2cc(=O)n(O)c3ncccc23)c1 [Example 196, 3-(1-hydroxy-2-oxo-1,2-dihydro-1,8-naphthyridin-4-yl)benzamide]	< 100 µM	< 50 µM
N#Cc1ccc(-c2c(O)c3cccnc3n(O)c2=O)cc1 [Example 45, 4-(1,4-dihydroxy-2-oxo-1,2-dihydro-1,8-naphthyridin-3-yl)benzonitrile]	< 100 µM	< 50 µM
CCOC(=O)c1cnc2c(c1)c(O)c(C(=O)NCc1ccccc1)c(=O)n2O [Example 92, Ethyl 6-[(benzylamino)carbonyl]-5,8-dihydroxy-7-oxo-7,8-dihydro-1,8-naphthyridine-3-carboxylate]	< 100 µM	< 50 µM
CN(C(=O)c1c(O)c2cccnc2n(O)c1=O)C1CCN(C(=O)OC(C)(C)C)CC1 [Example 9]	< 100 µM	< 50 µM
CS(=O)(=O)Nc1ccccc1-c1cc(=O)n(O)c2ncccc12 [Example 201, N-[2-(1-hydroxy-2-oxo-1,2-dihydro-1,8-naphthyridin-4-yl)phenyl]methanesulfo-namide]	< 100 µM	< 50 µM
